Reference: PubChem BioAssay AID179 (DTP/NCI, 2004)
pEC50, pIC50: −log10 of the molar value. Active and inactive are the calls of the source.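 How the source made its calls: active means compounds giving half or more protection of infected cells from virus-caused growth loss, again on retest; inactive means the rest.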 Where a SMILES comes first, the peptide text is derived from it. [ ]: non-standard residue; d: D form. The star is where a group is joined. Hyp = O=C(O)[CH]1C[CH](O)CN1; Cbz = O=C(OCc1ccccc1)*

Tested on: CEM cells HIV-1 protection, formazan growth assay
Test: NCI AIDS Antiviral Assay
Settings: for pIC50: measured here: growth of uninfected CEM cells
In short: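 Soluble formazan readout of cell growth; CEM cells ± HIV-1; 5 drug concs. ≥50% protection → retest; ≥50% again = moderately active; reproducible 100% = confirmed active.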

Compound | pEC50 | pIC50 | outcome
CC1=C[C@]2(O)C(=O)[C@H](C)C[C@H]3[C@@H](CC[C@@](C)(O)/C=C\2C1=O)C3(C)C | < 4.52 | 4.80 | –
COC(=O)/C(C#N)=C\NC(=S)NNC(C)=O | < 3.70 | < 3.70 | –
CC1OC(O[C@@H]2C=C3CC[C@@H]4[C@H](CC[C@]5(C)[C@@H](c6ccc(=O)oc6)CC[C@]45O)[C@@]3(C)CC2)C(O)C(O)C1O (stereo not given in full) | < 5.70 | 8.33 | –
CC1(C)NN=C(SCc2ccccc2)NC1=O | 4.39 | 3.84 | –
CCc1cc2c(c3[nH]ccc13)[C@@H](C)C[C@H]2C | – | – | inactive
BrCCOc1ccc(-c2c3ccccc3c(-c3ccc(OCCBr)cc3)c3ccccc23)cc1 | < 4.00 | < 4.00 | –
CC1=C2CCCC2=C/C(=N/Nc2ccc([N+](=O)[O-])cc2[N+](=O)[O-])CC1 | – | – | inactive
CCCCNC(C)(C)C(SSSC(c1ccco1)C(C)(C)NCCCC)c1ccco1 (stereo not given) | < 3.70 | 4.51 | –
CCOC(=O)N/N=C(\CC)OCC | < 3.70 | < 3.70 | –
CN(N)P(=O)(c1ccccc1)N(C)N | < 2.94 | 3.30 | –
CC(=O)c1ccc2c(ccc(=O)n2C)c1 | < 3.33 | 3.97 | –
O=Nc1c(O)ccc2ccccc12.O=Nc1c(O)ccc2ccccc12.O=Nc1c([O-])ccc2ccccc12.[Fe+3] | < 3.89 | 4.02 | –
CC(C)(C)C(=O)OC1CCOP(=O)(OCC2OC(n3cc(F)c(=O)[nH]c3=O)CC2O)O1 (stereo not given) | < 3.70 | 5.57 | –
O=C1c2ccccc2Sc2ccccc2N1CCN1CCN(c2ccc(F)cc2)CC1 | < 3.70 | < 3.70 | –
CC(C)=CC1CC(=O)C1(C)Sc1ccccc1 (stereo not given) | < 4.39 | < 4.39 | –
COC1=C(C)C2CC(=O)OC3CC4C(C)CC(O)C(=O)[C@]4(C)C(C1=O)[C@@]32C (stereo not given in full) | – | – | inactive
CC(=S)NNC(=O)c1ccncc1 | < 2.89 | 3.87 | –
C[C@H](NC(=O)CNC(=O)CCCCCC(=O)NCC(=O)N[C@@H](C)C(=O)OCc1ccccc1)C(=O)OCc1ccccc1 | < 3.70 | < 4.00 | –
CC(=O)O[C@H]1CC[C@H]2[C@@H]3CCc4cc(O)c(I)cc4[C@H]3CC[C@]12C | < 3.70 | 4.92 | –
NNC(=S)NNC(N)=O | 4.23 | < 3.70 | –
Nc1ccn(CC(=O)NCCCCO)c(=O)n1 | < 3.70 | < 3.70 | –
COC(=O)n1c(=O)nc2c3c(ncn21)Oc1c(c(-c2ccccc2)nn1-c1ccccc1)C3c1ccc(Cl)cc1 (stereo not given) | < 4.00 | 5.63 | –

Compound | pEC50 | pIC50 | outcome
CC12CCC(=O)N1c1ccc(Cl)cc1N2 (stereo not given) | < 3.94 | < 3.94 | –
CCOC(=O)C1=C(C)/C(=C\c2[nH]c(C)c(C(=O)OCC)c2C)N=C1C | < 3.70 | < 3.70 | –
Cn1c(=O)n(CC2CS2)c2ccccc21 (stereo not given) | < 2.95 | 4.61 | –
COc1c2cc([N+](=O)[O-])cc1CN(C(=O)C(F)(F)F)CCOCCN(C(=O)C(F)(F)F)C2 | < 3.70 | < 3.70 | –
Brc1ccc2c(-c3csc(-c4c[nH]c5cc(Br)ccc45)n3)c[nH]c2c1 | < 3.70 | 4.28 | –
O=c1c2c3c(sc2nc2n1N=C(c1ccc(Cl)cc1)CS2)CCCC3 | < 3.70 | < 3.70 | –
COc1ccc(-n2[nH]c3c(cnc4ccccc43)c2=O)cc1 | < 3.70 | < 3.70 | –
COc1ccc(-c2nc(Nc3ccccc3)sc2Cc2sc(Nc3ccccc3)nc2-c2ccc(OC)cc2)cc1 | – | – | inactive
O=c1[nH]nc(-c2ccccc2)n1-c1cccc([N+](=O)[O-])c1 | < 3.70 | < 3.70 | –
CN1CCN(c2ccc3nc(-c4ccc5nc(-c6ccc(O)cc6)[nH]c5c4)[nH]c3c2)CC1 | < 3.30 | 5.41 | –
CC(C)N(C(=O)C12CC3CC(CC(C3)C1)C2)C(C)C | < 3.87 | 4.38 | –
[N-]=[N+]=NCC1OCC(O)C(OCc2ccccc2)C1OCc1ccccc1 (stereo not given) | < 3.70 | 4.02 | –
O=c1[nH]c(=O)n(C2OC(CO)C(O)C2O)c2nccnc12 (stereo not given) | < 3.70 | < 3.70 | –
COc1cc2c(c(OC)c1OC)C1=NNC(=O)C1(C)CC2 (stereo not given) | < 3.21 | 3.32 | –
CC(C)(C)C(=O)OCOP(=O)(OCOC(=O)C(C)(C)C)OCC1OC(N2C=CC(N)NC2=O)CC1F (stereo not given) | 5.95 | 4.06 | –
COc1cc(/C=C2\CC/C(=C\c3cc(OC)c(O)c(OC)c3)C2=O)cc(OC)c1O | < 3.70 | 5.99 | –
C=CCCCC1CCCNC1=O (stereo not given) | < 2.83 | 2.94 | –
O=C1OC(c2cccs2)Sc2ccccc21 (stereo not given) | < 3.70 | 3.71 | –
CC1(C(=O)NCCN(CCNC(=O)C2(C)CC3(C)CC(C)(C2)C(=O)NC3=O)CCNC(=O)C2(C)CC3(C)CC(C)(C2)C(=O)NC3=O)CC2(C)CC(C)(C1)C(=O)NC2=O (stereo not given) | – | – | inactive
NS(=O)(=O)c1ccc(N2C(=O)C(=O)N(c3ccccc3)C2=S)cc1 | < 3.70 | 4.71 | –
S=C(N/N=C(/c1ccccc1)c1ccccn1)N(Cc1ccccn1)Cc1ccccn1 | < 3.70 | 7.20 | –
CCCCN1CC(=O)N2CCCC(c3ccccc3)N2C(=O)C1 (stereo not given) | < 3.10 | 3.46 | –

Compound | pEC50 | pIC50 | outcome
CSC1OC(C)(C)OC1=O (stereo not given) | < 3.70 | < 3.70 | –
CC(CCCC1SCC2NC(=O)NC21)C(=O)O (stereo not given) | < 3.01 | < 3.01 | –
O=C(/C=C/c1ccc(O)cc1)c1cc(O)cc(O)c1 | < 3.70 | 4.68 | –
COc1c2c(cc3occ(-c4ccc(CC=C(C)C)cc4)c(=O)c13)OC(C)(C)C=C2 | < 3.70 | 4.85 | –
O=CC[C@@H]1c2ccccc2C=C[C@]12C=CC(=O)CC2 | < 4.13 | 4.27 | –
CC1(C)CCCC(C)(C)N1[P-]C(=O)[P-]N1C(C)(C)CCCC1(C)C.[C-]#[O+].[C-]#[O+].[C-]#[O+].[C-]#[O+].[C-]#[O+].[C-]#[O+].[Fe].[Fe] (stereo not given) | < 5.65 | < 5.65 | –
O=C(O)C(Cc1ccccc1)N1C(=O)N/C(=C\c2ccc(F)cc2)C1=O (stereo not given) | – | – | inactive
C=CCOc1ccc(C2(O)c3ccccc3C3=NCCCN32)cc1 (stereo not given) | < 3.70 | 3.83 | –
CCOC(=O)/C(Cl)=C(\C)Nc1nc2c(ccc3ccccc32)s1 | < 4.00 | 4.31 | –
CN(C(=S)Nc1ccccc1)c1cc(N2CCCC2)ccn1 | < 3.70 | 4.53 | –
O=C(Nc1cc2c(oc1=O)CCCCC2)c1ccccc1 | < 3.70 | < 3.70 | –
CNC(=O)O/N=C\C=N\OC(=O)NC | – | – | inactive
NC(=O)CNC(=O)C1CC(O)CN1C(=O)C1CCCN1C(=O)OCc1ccccc1 (stereo not drawn) (Cbz-Pro-[Hyp]-Gly-NH2; configuration not given here) | < 3.70 | < 3.70 | –
NCCN.[O-][Cl+3]([O-])([O-])[O-].[Pd+2].c1ccc(-c2ccccn2)nc1 | < 3.70 | 4.52 | –
CC1(c2ccccc2)OC(=O)c2ccccc21 (stereo not given) | < 3.70 | < 4.00 | –
COc1ccc(NS(=O)c2ccc(OC)cc2)cc1 (stereo not given) | < 3.70 | 4.80 | –
Cn1c2ccc(Cl)cc2c2oc(-c3nn[nH]n3)cc(=O)c21 | < 3.70 | 3.76 | –
Cc1ccc(S(=O)(=O)C2CC3CC2C2COCC32)cc1 (stereo not given) | < 4.12 | < 4.12 | –
CCCCN(CCCC)P(=S)(OCC)OCC | < 3.70 | < 3.70 | –
O=C(/C=C/c1ccc(Cl)c(Cl)c1)c1ccc2ccccc2c1 | < 4.94 | < 4.94 | –
N#CCCC[P+](c1ccccc1)(c1ccccc1)c1ccccc1 | < 3.70 | < 3.70 | –
O=C(c1ccccc1)C(O)(c1ccccc1)C(c1ccccc1)c1ccccc1 (stereo not given) | < 4.58 | < 4.58 | –

Compound | pEC50 | pIC50 | outcome
O=[N+]([O-])C(=C/c1ccccc1)/C(=C\c1ccccc1)[N+](=O)[O-] | < 3.70 | 4.81 | –
CC(C)C[CH2][Ge]([CH2]CC(C)C)([CH2]CC(C)C)[CH2]CC(C)C | < 3.70 | < 3.70 | –
COc1ccc(NC(=S)NN=C(C)c2cccc(C(C)=NNC(=S)Nc3ccc(OC)cc3)n2)cc1 | < 3.70 | 4.26 | –
NS(=O)(=O)c1ccc(NCc2cccc3c(=O)c4ccc(Cl)cc4oc23)cc1 | < 4.00 | 5.39 | –
CCSC1=N/C(=C\c2ccco2)C(=O)N1 | < 3.70 | < 3.70 | –
NC(=S)N/N=c1\cc(C(=O)Nc2ccc([N+](=O)[O-])cc2[N+](=O)[O-])oc2ccccc12 | < 4.22 | < 4.22 | –
O=c1/c(=C/c2ccccc2[N+](=O)[O-])sc2nnc(-c3cccnc3)n12 | < 3.73 | < 3.73 | –
COc1cc(NCCN2CCN(CCNc3cc(OC)cc4cccnc34)CC2)c2ncccc2c1 | < 4.30 | 4.34 | –
O=C1c2ccccc2-c2c1c(-c1ccccc1)c1n2C2(C(=O)c3ccccc3C2=O)C2C(=O)N(c3ccccc3)C(=O)C12 (stereo not given) | < 3.70 | 3.92 | –
O=S1(=O)CCc2ccccc2C(Br)C1 (stereo not given) | < 3.70 | < 3.70 | –
CC/C(Cl)=N\OC(=O)Nc1ccc(F)c([N+](=O)[O-])c1 | < 3.70 | 5.55 | –
CCOC(CN(C)C(=O)OCC(Cl)(Cl)Cl)OCC | < 4.65 | < 4.65 | –
CN1Cc2ccccc2/C=C\c2ccccc21 | < 3.70 | 3.88 | –
Cc1ccn2c(c1)nc1nc3ccccc3nc12 | < 3.67 | 3.96 | –
CCOC(=O)c1c[nH]c2ccc3c(c2c1=O)S(=O)(=O)CC3 (tested in a mixture with another compound) | – | – | inactive
NC(CSS(=O)(=O)c1ccccc1)C(=O)O (stereo not given) | < 3.70 | < 3.70 | –
O=C1CS(=O)(=O)CN1N1CS(=O)(=O)CC1=O | < 3.70 | 3.96 | –
Cc1cccc(N=Nc2c(C)nn(C(=O)c3ccccc3)c2C)c1 | – | – | inactive
COc1cc2c(c([N+](=O)[O-])c1)NCCS2 | < 3.70 | < 3.70 | –
CCN(CC)CC(=O)Nc1ccc(Cc2ccc(NC(=O)CN(CC)CC)cc2)cc1 | < 3.70 | 4.79 | –
CC1(C)SC(CCCCCCCCCCCNC2=NCCCCCCCCCCC2)=N[C@@H]1C(=O)O | < 4.17 | 4.42 | –
